Reference: PubChem BioAssay AID1259407 (Chemical Carcinogenesis Research Information System (CCRIS), 2018)
Active and inactive are the calls of the source. The rule behind the calls is not given here.

Test system: CCRIS mutagenicity, Ames/micronucleus/aberration tests
Assay: CCRIS mutagenicity studies
Excerpt: The CCRIS database contains chemical records with carcinogenicity, mutagenicity, tumor promotion, and tumor inhibition test results. It was developed by the National Cancer Institute (NCI). Data are derived from studies cited in primary journals, current awareness tools, NCI reports, and other sources. Test results have been reviewed by experts in carcinogenesis and mutagenesis.
CCRIS provides historical information from the years 1985 - 2011. It is no longer updated.
This is an archive assay for CCRIS mutagenicity studies.

[1] = Test System: AMES SALMONELLA TYPHIMURIUM, Strain/Indicator: TA98, Metabolic Activation: NONE, Method: PREINCUBATION
[2] = Test System: AMES SALMONELLA TYPHIMURIUM, Strain/Indicator: TA98, Metabolic Activation: NONE, Method: STANDARD PLATE
[3] = Test System: AMES SALMONELLA TYPHIMURIUM, Strain/Indicator: TA100, Metabolic Activation: NONE, Method: STANDARD PLATE
[4] = Test System: AMES SALMONELLA TYPHIMURIUM, Strain/Indicator: TA1538, Metabolic Activation: NONE, Method: STANDARD PLATE

For `CC(=O)N[C@@H]1[C@@H](O[C@@H]2O[C@H](C(=O)O)[C@@H](O[C@@H]3O[C@H](CO)[C@@H](O)[C@H](O[C@@H]4O[C@H](C(=O)O)[C@@H](O)[C@H](O)[C@H]4O)[C@H]3NC(C)=O)[C@H](O)[C@H]2O)[C@H](O)[C@@H](CO)O[C@H]1O`, the mutagenic call (Test System: AMES SALMONELLA TYPHIMURIUM, Strain/Indicator: TA98, Metabolic Activation: NONE) was “inactive; negative”, the mutagenic call [1] was “inactive; negative” and the mutagenic call (Test System: AMES SALMONELLA TYPHIMURIUM, Strain/Indicator: TA98, Metabolic Activation: RAT, LIVER, S-9, PHENOBARBITAL AND 5,6-BENZOFLAVONE, Method: PREINCUBATION) was “inactive; negative”. For the same molecule, the mutagenic call (Test System: AMES SALMONELLA TYPHIMURIUM, Strain/Indicator: TA98, Metabolic Activation: RAT, LIVER, S-9, Method: PREINCUBATION) was “inactive; negative”, the mutagenic call (Test System: AMES SALMONELLA TYPHIMURIUM, Strain/Indicator: TA98, Metabolic Activation: S-9) was “inactive; negative” and the mutagenic call (Test System: AMES SALMONELLA TYPHIMURIUM, Strain/Indicator: TA100, Metabolic Activation: NONE) was “inactive; negative”. For the same molecule, the mutagenic call (Test System: AMES SALMONELLA TYPHIMURIUM, Strain/Indicator: TA100, Metabolic Activation: NONE, Method: PREINCUBATION) was “inactive; negative”, the mutagenic call (Test System: AMES SALMONELLA TYPHIMURIUM, Strain/Indicator: TA100, Metabolic Activation: RAT, LIVER, S-9, PHENOBARBITAL AND 5,6-BENZOFLAVONE, Method: PREINCUBATION) was “inactive; negative” and the mutagenic call (Test System: AMES SALMONELLA TYPHIMURIUM, Strain/Indicator: TA100, Metabolic Activation: RAT, LIVER, S-9, Method: PREINCUBATION) was “inactive; negative”. The mutagenic call (Test System: AMES SALMONELLA TYPHIMURIUM, Strain/Indicator: TA100, Metabolic Activation: S-9) was “inactive; negative”, the mutagenic call (Test System: AMES SALMONELLA TYPHIMURIUM, Strain/Indicator: TA1535, Metabolic Activation: NONE) was “inactive; negative” and the mutagenic call (Test System: AMES SALMONELLA TYPHIMURIUM, Strain/Indicator: TA1535, Metabolic Activation: NONE, Method: PREINCUBATION) was “inactive; negative”. For the same molecule, the mutagenic call (Test System: AMES SALMONELLA TYPHIMURIUM, Strain/Indicator: TA1535, Metabolic Activation: RAT, LIVER, S-9, PHENOBARBITAL AND 5,6-BENZOFLAVONE, Method: PREINCUBATION) was “inactive; negative”, the mutagenic call (Test System: AMES SALMONELLA TYPHIMURIUM, Strain/Indicator: TA1535, Metabolic Activation: RAT, LIVER, S-9, Method: PREINCUBATION) was “inactive; negative” and the mutagenic call (Test System: AMES SALMONELLA TYPHIMURIUM, Strain/Indicator: TA1535, Metabolic Activation: S-9) was “inactive; negative”. The mutagenic call (Test System: AMES SALMONELLA TYPHIMURIUM, Strain/Indicator: TA1537, Metabolic Activation: NONE) was “inactive; negative”, the mutagenic call (Test System: AMES SALMONELLA TYPHIMURIUM, Strain/Indicator: TA1537, Metabolic Activation: NONE, Method: PREINCUBATION) was “inactive; negative” and the mutagenic call (Test System: AMES SALMONELLA TYPHIMURIUM, Strain/Indicator: TA1537, Metabolic Activation: RAT, LIVER, S-9, PHENOBARBITAL AND 5,6-BENZOFLAVONE, Method: PREINCUBATION) was “inactive; negative”. For the same molecule, the mutagenic call (Test System: AMES SALMONELLA TYPHIMURIUM, Strain/Indicator: TA1537, Metabolic Activation: RAT, LIVER, S-9, Method: PREINCUBATION) was “inactive; negative”, the mutagenic call (Test System: AMES SALMONELLA TYPHIMURIUM, Strain/Indicator: TA1537, Metabolic Activation: S-9) was “inactive; negative” and the mutagenic call (Test System: E. COLI, Strain/Indicator: WP2 UVRA, Metabolic Activation: NONE) was “inactive; negative”. The mutagenic call (Test System: E. COLI, Strain/Indicator: WP2 UVRA, Metabolic Activation: S-9) was “inactive; negative”, the mutagenic call (Test System: E.COLI, Strain/Indicator: WP2 UVRA, Metabolic Activation: NONE, Method: PREINCUBATION) was “inactive; negative” and the mutagenic call (Test System: E.COLI, Strain/Indicator: WP2 UVRA, Metabolic Activation: RAT, LIVER, S-9, PHENOBARBITAL AND 5,6-BENZOFLAVONE, Method: PREINCUBATION) was “inactive; negative”. The mutagenic call (Test System: E.COLI, Strain/Indicator: WP2 UVRA, Metabolic Activation: RAT, LIVER, S-9, Method: PREINCUBATION) was “inactive; negative”.

In the case of `C[C@]12C=CC(=O)C=C1CC[C@@H]1[C@@H]2C(=O)C[C@@]2(C)[C@H]1CC[C@]2(O)C(=O)CO`, the mutagenic call (Test System: AMES SALMONELLA TYPHIMURIUM, Strain/Indicator: TA98, Metabolic Activation: HAMSTER, LIVER, S-9, AROCLOR 1254 (10%), Method: STANDARD PLATE) is reported as “inactive; negative”, the mutagenic call [2] is reported as “inactive; negative” and the mutagenic call (Test System: AMES SALMONELLA TYPHIMURIUM, Strain/Indicator: TA98, Metabolic Activation: RAT, LIVER, S-9, AROCLOR 1254 (10%), Method: STANDARD PLATE) is reported as “inactive; negative”. For the same molecule, the mutagenic call (Test System: AMES SALMONELLA TYPHIMURIUM, Strain/Indicator: TA100, Metabolic Activation: HAMSTER, LIVER, S-9, AROCLOR 1254 (10%), Method: STANDARD PLATE) was “inactive; negative”, the mutagenic call [3] was “inactive; negative” and the mutagenic call (Test System: AMES SALMONELLA TYPHIMURIUM, Strain/Indicator: TA100, Metabolic Activation: RAT, LIVER, S-9, AROCLOR 1254 (10%), Method: STANDARD PLATE) was “inactive; negative”. The mutagenic call (Test System: AMES SALMONELLA TYPHIMURIUM, Strain/Indicator: TA1535, Metabolic Activation: HAMSTER, LIVER, S-9, AROCLOR 1254 (10%), Method: STANDARD PLATE) was “inactive; negative”, the mutagenic call (Test System: AMES SALMONELLA TYPHIMURIUM, Strain/Indicator: TA1535, Metabolic Activation: NONE, Method: STANDARD PLATE) was “inactive; negative” and the mutagenic call (Test System: AMES SALMONELLA TYPHIMURIUM, Strain/Indicator: TA1535, Metabolic Activation: RAT, LIVER, S-9, AROCLOR 1254 (10%), Method: STANDARD PLATE) was “inactive; negative”. For the same molecule, the mutagenic call (Test System: AMES SALMONELLA TYPHIMURIUM, Strain/Indicator: TA1537, Metabolic Activation: HAMSTER, LIVER, S-9, AROCLOR 1254 (10%), Method: STANDARD PLATE) was “inactive; negative”, the mutagenic call (Test System: AMES SALMONELLA TYPHIMURIUM, Strain/Indicator: TA1537, Metabolic Activation: NONE, Method: STANDARD PLATE) was “inactive; negative” and the mutagenic call (Test System: AMES SALMONELLA TYPHIMURIUM, Strain/Indicator: TA1537, Metabolic Activation: RAT, LIVER, S-9, AROCLOR 1254 (10%), Method: STANDARD PLATE) was “inactive; negative”. For the same molecule, the mutagenic call (Test System: AMES SALMONELLA TYPHIMURIUM, Strain/Indicator: TA1538, Metabolic Activation: HAMSTER, LIVER, S-9, AROCLOR 1254 (10%), Method: STANDARD PLATE) was “inactive; negative”, the mutagenic call [4] was “inactive; negative” and the mutagenic call (Test System: AMES SALMONELLA TYPHIMURIUM, Strain/Indicator: TA1538, Metabolic Activation: RAT, LIVER, S-9, AROCLOR 1254 (10%), Method: STANDARD PLATE) was “inactive; negative”. For the same molecule, the mutagenic call (Test System: MOUSE LYMPHOMA, Strain/Indicator: L5178Y (TK+/TK-), Metabolic Activation: NONE, Method: SUSPENSION/PLATE) was “inactive; negative. reevaluation of results: negative” and the mutagenic call (Test System: MOUSE LYMPHOMA, Strain/Indicator: L5178Y (TK+/TK-), Metabolic Activation: RAT, LIVER, S-9, AROCLOR 1254, Method: SUSPENSION/PLATE) was “inactive; negative. reevaluation of results: inconclusive”.

With `CCC(O)CN(CC(O)CC)N=O` (stereo not given) the mutagenic call (Test System: CHINESE HAMSTER V-79, Strain/Indicator: V-79/OUABAIN, Metabolic Activation: HAMSTER, HEPATOCYTES, Method: CELL-MEDIATED) was “inactive; negative”.

With `CCCOc1cc(N=Nc2ccccc2)ccc1N=Nc1c(S(=O)(=O)O)cc2ccc(N)cc2c1O` the mutagenic call [2] was “inactive; negative”, the mutagenic call (Test System: AMES SALMONELLA TYPHIMURIUM, Strain/Indicator: TA98, Metabolic Activation: RAT, LIVER, S-9, AROCLOR 1254, Method: STANDARD PLATE) was “active; positive” and the mutagenic call [3] was “inactive; negative”. For the same molecule, the mutagenic call (Test System: AMES SALMONELLA TYPHIMURIUM, Strain/Indicator: TA100, Metabolic Activation: RAT, LIVER, S-9, AROCLOR 1254, Method: STANDARD PLATE) was “inactive; negative”, the mutagenic call [4] was “inactive; negative” and the mutagenic call (Test System: AMES SALMONELLA TYPHIMURIUM, Strain/Indicator: TA1538, Metabolic Activation: RAT, LIVER, S-9, AROCLOR 1254, Method: STANDARD PLATE) was “active; positive”.

For `O=Cc1ccccc1O`, the mutagenic call [2] was “inactive; negative”, the mutagenic call (Test System: AMES SALMONELLA TYPHIMURIUM, Strain/Indicator: TA98, Metabolic Activation: S-9, Method: STANDARD PLATE) was “inactive; negative” and the mutagenic call [3] was “inactive; negative”. The mutagenic call (Test System: AMES SALMONELLA TYPHIMURIUM, Strain/Indicator: TA100, Metabolic Activation: S-9, Method: STANDARD PLATE) was “inactive; negative”.

For `CC(=O)OCc1ccc2ccc3cccc4ccc1c2c34`, the mutagenic call [1] was “active; positive”.

For `CCC(C)NC(=O)C=Cc1ccc([N+](=O)[O-])o1` (stereo not given), the mutagenic call [1] was “active; positive”.
